In patent US10526295B2, “Nuclear transport modulators and uses thereof” (Karyopharm Therapeutics Inc., priority 2015, dated 2020):

Experiments:
Assay type in all cases: cell-based
[1] = tested on: MM1S cells; experiment: MTT cell proliferation assay (MM1S); settings: Homo sapiens, MM1.S; MM1S multiple myeloma cells; approximately 64-72 hours incubation; 1 nM to 30 μM
Method: (§1) The MTT cell proliferation assay was used to study the cytotoxic properties of the compounds. The assay was performed according to the method described by Roche Molecular Biochemicals, with minor modifications. The assay is based on the cleavage of the tetrazolium salt, MTT, in the presence of an electron-coupling reagent. The water-insoluble formazan salt produced must be solubilized in an additional step. Cells grown in a 96-well tissue culture plate were incubated with the MTT solution for approximately 4 hours. After this incubation period, a water-insoluble formazan dye formed. After solubilization, the formazan dye was quantitated using a scanning multi-well spectrophotometer (ELISA reader). […] The cells were seeded at 5,000-10,000 cells in each well of 96-well plate in 100 μL of fresh culture medium and were allowed to attach overnight. The stock solutions of the compounds were diluted in 100 μL cell culture medium to obtain eight concentrations of each test compound, ranging from 1 nM to 30 μM. […] All optical densities were measured at 490 nm using a Vmax Kinetic Microplate Reader (Molecular Devices). In most cases, the assay was performed in duplicate and the results were presented as a mean percent inhibition to the negative control±SE. The following formula was used to calculate the percent of inhibition: Inhibition (%)=(1−(ODo/OD))×100.
(§2) The compounds were tested against Z138, MM1S and 3T3 cells. The Z138 cell line is a mature B-cell acute lymphoblastic leukemia cell line derived from a patient with chronic lumphocytic leukemia. The MM1S cell line was established from the peripheral blood of a human multiple myeloma patient. 3T3 cells are standard fibroblast cells; they were originally isolated from Swiss mouse embryo tissue.

[2] = tested on: Z138 cells; experiment: MTT cell proliferation assay (Z138); settings: Homo sapiens, Z-138, approximately 64-72 hours incubation, 1 nM to 30 μM
Method: as §1, §2

[3] = tested on: 3T3 cells; experiment: MTT cell proliferation assay (3T3); settings: Mus musculus, NIH3T3; 3T3 fibroblast cells; approximately 64-72 hours incubation; 1 nM to 30 μM
Method: as §1, §2

Structure (SMILES) | IC50 [1] [nM] | IC50 [2] [nM] | IC50 [3] [nM]
NC(=O)/C(=C/n1cnc(-c2cc(C(F)(F)F)cc(C(F)(F)F)c2)n1)c1ccc(S(=O)(=O)NC2CC2)cc1 [Compound 100, (E)-3-(3-(3,5-bis(trifluoromethyl)phenyl)-1H-1,2,4-triazol-1-yl)-2-(4-(N-cyclopropylsulfamoyl)phenyl)acrylamide] | < 100 | < 100 | > 30000
NC(=O)/C(=C/n1cnc(-c2cc(C(F)(F)F)cc(C(F)(F)F)c2)n1)c1ccc(S(=O)(=O)C2CC2)cc1 [Compound 101, (E)-3-(3-(3,5-bis(trifluoromethyl)phenyl)-1H-1,2,4-triazol-1-yl)-2-(4-(cyclopropylsulfonyl)phenyl)acrylamide] | < 100 | < 100 | < 100
CS(=O)(=O)Nc1cccc(/C(=C\n2cnc(-c3cc(C(F)(F)F)cc(C(F)(F)F)c3)n2)C(N)=O)c1 [Compound 102, (E)-3-(3-(3,5-bis(trifluoromethyl)phenyl)-1H-1,2,4-triazol-1-yl)-2-(3-(methylsulfonamido)phenyl)acrylamide] | 100 to 5000 | 100 to 5000 | > 30000
CS(=O)(=O)c1ccc(/C(=C\n2cnc(-c3cc(C(F)(F)F)cc(C(F)(F)F)c3)n2)C(N)=O)cc1 [Compound 103, (E)-3-(3-(3,5-bis(trifluoromethyl)phenyl)-1H-1,2,4-triazol-1-yl)-2-(4-(methylsulfonyl)phenyl)acrylamide] | < 100 | 100 to 5000 | > 30000
CN(C)S(=O)(=O)c1ccc(/C(=C\n2cnc(-c3cc(C(F)(F)F)cc(C(F)(F)F)c3)n2)C(N)=O)cc1 [Compound 104, (E)-3-(3-(3,5-bis(trifluoromethyl)phenyl)-1H-1,2,4-triazol-1-yl)-2-(4-(N,N-dimethylsulfamoyl)phenyl)acrylamide] | 100 to 5000 | 100 to 5000 | > 30000
NC(=O)/C(=C/n1cnc(-c2cc(C(F)(F)F)cc(C(F)(F)F)c2)n1)c1ccc(S(=O)(=O)N2CCC(F)(F)CC2)cc1 [Compound 105, (E)-3-(3-(3,5-bis(trifluoromethyl)phenyl)-1H-1,2,4-triazol-1-yl)-2-(4-(4,4-difluoropiperidin-1-ylsulfonyl)phenyl)acrylamide] | < 100 | < 100 | 100 to 5000
NC(=O)/C(=C/n1cnc(-c2cc(C(F)(F)F)cc(C(F)(F)F)c2)n1)c1ccc(S(=O)(=O)N2CCC(C(F)(F)F)CC2)cc1 [Compound 106, (E)-3-(3-(3,5-bis(trifluoromethyl)phenyl)-1H-1,2,4-triazol-1-yl)-2-(4-(4-(trifluoromethyl)piperidin-1-ylsulfonyl)phenyl)acrylamide] | 100 to 5000 | 100 to 5000 | > 30000
NC(=O)/C(=C/n1cnc(-c2cc(C(F)(F)F)cc(C(F)(F)F)c2)n1)c1ccc(S(=O)(=O)N2CCC2)cc1 [Compound 107, (E)-2-(4-(azetidin-1-ylsulfonyl)phenyl)-3-(3-(3,5-bis(trifluoromethyl)phenyl)-1H-1,2,4-triazol-1-yl)acrylamide] | < 100 | < 100 | 100 to 5000
NC(=O)/C(=C/n1cnc(-c2cc(C(F)(F)F)cc(C(F)(F)F)c2)n1)c1ccc(S(=O)(=O)N2CCOCC2)cc1 [Compound 108, (E)-3-(3-(3,5-bis(trifluoromethyl)phenyl)-1H-1,2,4-triazol-1-yl)-2-(4-(morpholinosulfonyl)phenyl)acrylamide] | < 100 | 100 to 5000 | 100 to 5000
NC(=O)/C(=C/n1cnc(-c2cc(C(F)(F)F)cc(C(F)(F)F)c2)n1)c1ccc(S(=O)(=O)N2CCCCC2)cc1 [Compound 109, (E)-3-(3-(3,5-bis(trifluoromethyl)phenyl)-1H-1,2,4-triazol-1-yl)-2-(4-(piperidin-1-ylsulfonyl)phenyl)acrylamide] | 100 to 5000 | 100 to 5000 | 100 to 5000
NC(=O)/C(=C/n1cnc(-c2cc(C(F)(F)F)cc(C(F)(F)F)c2)n1)c1ccc(S(=O)(=O)N2CC(F)C2)cc1 [Compound 110, (E)-3-(3-(3,5-bis(trifluoromethyl)phenyl)-1H-1,2,4-triazol-1-yl)-2-(4-(3-fluoroazetidin-1-ylsulfonyl)phenyl)acrylamide] | < 100 | < 100 | 100 to 5000
NC(=O)/C(=C/n1cnc(-c2cc(C(F)(F)F)cc(C(F)(F)F)c2)n1)c1ccc(S(=O)(=O)N2CC(F)(F)C2)cc1 [Compound 111, (E)-3-(3-(3,5-bis(trifluoromethyl)phenyl)-1H-1,2,4-triazol-1-yl)-2-(4-(3,3-difluoroazetidin-1-ylsulfonyl)phenyl)acrylamide] | < 100 | < 100 | 100 to 5000
NC(=O)/C(=C/n1cnc(-c2cc(C(F)(F)F)cc(C(F)(F)F)c2)n1)c1ccc(S(=O)(=O)N2CCCC2)cc1 [Compound 112, (E)-3-(3-(3,5-bis(trifluoromethyl)phenyl)-1H-1,2,4-triazol-1-yl)-2-(4-(pyrrolidin-1-ylsulfonyl)phenyl)acrylamide] | < 100 | < 100 | 100 to 5000
NC(=O)/C(=C/n1cnc(-c2cc(C(F)(F)F)cc(C(F)(F)F)c2)n1)c1ccc(S(=O)(=O)N2CCC(F)(F)C2)cc1 [Compound 113, (E)-3-(3-(3,5-bis(trifluoromethyl)phenyl)-1H-1,2,4-triazol-1-yl)-2-(4-(3,3-difluoropyrrolidin-1-ylsulfonyl)phenyl)acrylamide] | < 100 | < 100 | < 100
NC(=O)/C(=C/n1cnc(-c2cc(C(F)(F)F)cc(C(F)(F)F)c2)n1)c1ccc(S(=O)(=O)N2CCC(F)CC2)cc1 [Compound 114, (E)-3-(3-(3,5-bis(trifluoromethyl)phenyl)-1H-1,2,4-triazol-1-yl)-2-(4-(4-fluoropiperidin-1-ylsulfonyl)phenyl)acrylamide] | < 100 | < 100 | < 100
CN1CCN(S(=O)(=O)c2ccc(/C(=C\n3cnc(-c4cc(C(F)(F)F)cc(C(F)(F)F)c4)n3)C(N)=O)cc2)CC1 [Compound 115, (E)-3-(3-(3,5-bis(trifluoromethyl)phenyl)-1H-1,2,4-triazol-1-yl)-2-(4-(4-methylpiperazin-1-ylsulfonyl)phenyl)acrylamide] | 100 to 5000 | 100 to 5000 | 100 to 5000
CC1(C)CN(S(=O)(=O)c2ccc(/C(=C\n3cnc(-c4cc(C(F)(F)F)cc(C(F)(F)F)c4)n3)C(N)=O)cc2)CCO1 [Compound 116, (E)-3-(3-(3,5-bis(trifluoromethyl)phenyl)-1H-1,2,4-triazol-1-yl)-2-(4-(2,2-dimethylmorpholinosulfonyl)phenyl)acrylamide] | 100 to 5000 | 100 to 5000 | 100 to 5000
NC(=O)/C(=C/n1cnc(-c2cc(C(F)(F)F)cc(C(F)(F)F)c2)n1)c1ccc(S(=O)(=O)N2CC[C@@H](F)C2)cc1 [Compound 117, (R,E)-3-(3-(3,5-bis(trifluoromethyl)phenyl)-1H-1,2,4-triazol-1-yl)-2-(4-(3-fluoropyrrolidin-1-ylsulfonyl)phenyl)acrylamide] | < 100 | < 100 | 100 to 5000
NC(=O)/C(=C/n1cnc(-c2cc(C(F)(F)F)cc(C(F)(F)F)c2)n1)c1ccc(S(=O)(=O)N2CCCOCC2)cc1 [Compound 118, (E)-2-(4-(1,4-oxazepan-4-ylsulfonyl)phenyl)-3-(3-(3,5-bis(trifluoromethyl)phenyl)-1H-1,2,4-triazol-1-yl)acrylamide] | < 100 | < 100 | 100 to 5000
NC(=O)/C(=C/n1cnc(-c2cc(C(F)(F)F)cc(C(F)(F)F)c2)n1)c1cccc(S(=O)(=O)N2CCOCC2)c1 [Compound 119, (E)-3-(3-(3,5-bis(trifluoromethyl)phenyl)-1H-1,2,4-triazol-1-yl)-2-(3-(morpholinosulfonyl)phenyl)acrylamide] | 100 to 5000 | 100 to 5000 | > 30000
NC(=O)/C(=C/n1cnc(-c2cc(C(F)(F)F)cc(C(F)(F)F)c2)n1)c1cccc(S(=O)(=O)N2CCC(F)CC2)c1 [Compound 120, (E)-3-(3-(3,5-bis(trifluoromethyl)phenyl)-1H-1,2,4-triazol-1-yl)-2-(3-(4-fluoropiperidin-1-ylsulfonyl)phenyl)acrylamide] | 100 to 5000 | 100 to 5000 | > 30000
NC(=O)/C(=C/n1cnc(-c2cc(C(F)(F)F)cc(C(F)(F)F)c2)n1)c1cccc(S(=O)(=O)N2CC(F)(F)C2)c1 [Compound 121, (E)-3-(3-(3,5-bis(trifluoromethyl)phenyl)-1H-1,2,4-triazol-1-yl)-2-(3-(3,3-difluoroazetidin-1-ylsulfonyl)phenyl)acrylamide] | 100 to 5000 | 100 to 5000 | > 30000
